Experimental data as given in publication PMC10076467 (EJNMMI Research, 2023).
Like-named read-outs stand apart in the source and are kept apart here.

Key:
PC12 cell σ2 receptors = target: T1, PC12 cell σ2 receptors (Rattus norvegicus, UniProt Q5U3Y7); test: PDSP σ2 receptor binding
T1 construct: endogenous in cells; host or cells: PC12 cells
T1 sequence (Q5U3Y7 1-176): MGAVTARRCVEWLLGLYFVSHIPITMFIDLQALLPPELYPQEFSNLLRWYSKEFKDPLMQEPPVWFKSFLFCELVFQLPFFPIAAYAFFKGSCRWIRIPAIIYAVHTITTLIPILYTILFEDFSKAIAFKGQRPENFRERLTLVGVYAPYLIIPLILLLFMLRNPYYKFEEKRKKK
Excerpt: (§1) NR2B-Me was submitted to the PDSP for assessment of binding affinity against a wide range of other receptors and binding sites. A full listing of these receptors and binding sites is given in the Supplemental Results. Detailed assay protocols are available at the PDSP website (http://pdsp.cwru.edu).
(§2) Assessment of Binding Affinity against a Wide Range of Other Receptors and Binding Sites. NR2B-Me was submitted to the National Institute of Mental Health Psychoactive Drug Screening program (NIMH-PDSP) to assess binding affinity against a wide range of other receptors and binding sites (5-HT1A, 1B, 1D, 1E, 2A, 2A agonist, 2A antagonist, 2B, 2B agonist, 2B antagonist, 2C, 2C agonist, 2C antagonist, 3, 5A, 6, 7; α2; α2β2, α2β2, α3β2, α3β4, α4β2, α4β4, α7; α1A, 1A agonist, 1B, 1B agonist, 1B antagonist, 2A-2C; AMPA*; β1-3; BZPa1-3, a5, a6, rat brain site; Ca^2+-Channel; CB1-2, D1, 2, 2 agonist, 2 antagonist, 3-5; DAT; DOR; EP1-4; GABAA,B; GPR40,41,43; H1-4; HERG; IMIDAZOLINE 1; KA-R*; KOR, KORagonist, antagonist; M1, 1 agonist, 1 antagonist, 2, 3, 3 agonist, 3 antagonist, 4, 5, 5 agonist, 5 antagonist; MDR 1; mGluR1A,2,4,5,5-cloned,5-rat brain,6,8; MOR; Na^+-Channel; NET; NK1, 1 antagonist, 2, 2 antagonist, 3, 3 antagonist; NMDA; NMDA/MK801; NT-1; OXYTOCINagonist, antagonist; PAR1agonist, antagonist; PCP; PKCA, B, D, E, G; PTHR2, Purinergicagonist, antagonist; SET; σ1,2; V1, 1 agonist, 1 antagonist, 2, 2 agonist, 2 antagonist, 3, 3 agonist, 3 antagonist, VMAT1, 2).

guinea pig σ1 receptor = guinea pig σ1 receptor (Cavia porcellus, UniProt Q60492); test: PDSP σ1 receptor binding
Chain of guinea pig σ1 receptor (Q60492 whole entry): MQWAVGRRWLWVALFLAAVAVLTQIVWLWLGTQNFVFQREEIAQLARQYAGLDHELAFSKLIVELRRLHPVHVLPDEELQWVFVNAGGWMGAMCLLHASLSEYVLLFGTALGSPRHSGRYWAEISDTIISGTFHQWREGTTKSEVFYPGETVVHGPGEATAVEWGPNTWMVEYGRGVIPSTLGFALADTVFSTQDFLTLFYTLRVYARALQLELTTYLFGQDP
Excerpt: as §1, §2

[1] = rat, cited from earlier work
GluN2B receptors [2] = target: T2, GluN2B receptors (Rattus norvegicus, UniProt P35439+Q00960); test: PET displacement / pre-blocking of ^11C-NR2B-Me radioligands with Ro-25-6981, Lassen plots; format: in vivo; details: for BPND (SUVBL/SUVND−1), whole rat brain: Lassen (SUV) plots; for non-displaceable binding (X-axis intercept of Lassen plots): rat brain, pre-blocking with 0.25 mg/kg Ro-25-6981, on average; for displacement from peak value at 90 min: rat whole brain, Ro-25-6981 0.25 mg/kg i.v. 10 min after radioligand, n = 1
T2 construct: from tissue; host or cells: brain of living male rats (PET imaging)
T2 sequence (Q00960 27-1482, other chains not shown): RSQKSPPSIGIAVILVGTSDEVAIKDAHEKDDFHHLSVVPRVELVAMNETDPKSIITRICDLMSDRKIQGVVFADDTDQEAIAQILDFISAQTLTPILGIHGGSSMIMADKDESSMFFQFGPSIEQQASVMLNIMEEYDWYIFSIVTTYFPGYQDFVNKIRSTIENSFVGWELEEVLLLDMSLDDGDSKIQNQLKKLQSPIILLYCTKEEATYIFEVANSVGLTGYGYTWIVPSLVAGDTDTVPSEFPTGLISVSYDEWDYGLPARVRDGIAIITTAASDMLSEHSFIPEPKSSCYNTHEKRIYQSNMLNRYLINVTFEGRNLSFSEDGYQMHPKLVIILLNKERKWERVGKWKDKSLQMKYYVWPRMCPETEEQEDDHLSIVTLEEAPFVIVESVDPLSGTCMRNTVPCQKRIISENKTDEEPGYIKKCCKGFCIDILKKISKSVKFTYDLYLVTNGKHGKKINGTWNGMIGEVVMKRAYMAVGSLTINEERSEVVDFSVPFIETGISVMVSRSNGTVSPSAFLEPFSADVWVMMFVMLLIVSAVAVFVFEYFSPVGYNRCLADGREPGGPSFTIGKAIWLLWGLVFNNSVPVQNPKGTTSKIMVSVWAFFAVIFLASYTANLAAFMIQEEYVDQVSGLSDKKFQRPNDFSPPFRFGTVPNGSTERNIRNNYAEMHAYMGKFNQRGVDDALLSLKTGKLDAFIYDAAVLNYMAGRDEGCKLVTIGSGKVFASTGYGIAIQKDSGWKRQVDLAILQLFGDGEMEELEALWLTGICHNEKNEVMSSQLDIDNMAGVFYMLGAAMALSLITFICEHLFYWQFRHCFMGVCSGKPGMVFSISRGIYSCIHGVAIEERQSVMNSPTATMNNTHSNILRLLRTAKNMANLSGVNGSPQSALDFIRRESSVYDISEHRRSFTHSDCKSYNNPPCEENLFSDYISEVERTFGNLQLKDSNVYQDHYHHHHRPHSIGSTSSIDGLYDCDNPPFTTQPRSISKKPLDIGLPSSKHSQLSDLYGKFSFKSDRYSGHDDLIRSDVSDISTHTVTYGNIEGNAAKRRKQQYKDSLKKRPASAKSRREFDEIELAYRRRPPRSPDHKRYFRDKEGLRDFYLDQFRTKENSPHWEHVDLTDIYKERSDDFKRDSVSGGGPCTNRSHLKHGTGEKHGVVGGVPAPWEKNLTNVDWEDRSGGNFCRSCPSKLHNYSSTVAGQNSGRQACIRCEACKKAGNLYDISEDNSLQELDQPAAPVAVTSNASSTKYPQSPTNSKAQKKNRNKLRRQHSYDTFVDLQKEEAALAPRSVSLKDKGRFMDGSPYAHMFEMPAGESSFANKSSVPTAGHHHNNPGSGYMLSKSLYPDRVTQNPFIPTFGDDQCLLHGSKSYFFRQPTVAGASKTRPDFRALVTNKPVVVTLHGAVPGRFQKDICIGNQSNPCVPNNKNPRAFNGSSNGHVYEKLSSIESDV
Experimental: (§3) For radioligand injection, a polyethylene catheter (PE 10) was inserted into the penile vein of a male rat and then secured with tissue adhesive and tape. […] Body temperature was monitored with a rectal probe. All PET scans were performed on a microPET Focus 220 scanner (Siemens Medical Solutions) (7,8). Data were acquired in listmode and reconstructed with Fourier rebinning + 2D filtered backprojection. A transmission scan was acquired before radioligand injection for attenuation correction. Dynamic scanning began at the time of a one-minute intravenous bolus injection of the radioligand under study (55 ± 19 MBq; volume 0.2 to 1.0 mL). The injected mass dose was 3 ± 1 nmol/kg. Challenge agents were administered intravenously 10 minutes before the radioligand for pre-blocking studies or 10 minutes after the radioligand for displacement studies. Tomographic images were analyzed with pixel-wise modeling computer software (PMOD 2.6; PMOD Group). Regions-of-interest in the brain were delineated, and time-activity curves calculated as SUV versus time.
(§4) Pre-blocking and displacement experiments were performed to assess radioligand target engagement and radioligand selectivity in vivo. […] Areas-under the curve (AUCs) from time-activity curves between 20 and 90 minutes were calculated for each radioligand. AUCs obtained from the same production of radioligand were scaled to the value (or mean value) for the baseline experiment to give relative values (relative AUC20–90 min). […] Where data permitted, the dose-response curves were fitted with GraphPad Prism software (version 8.1.1; GraphPad) to estimate the ED50 values. A dummy value of 100 pmol per kg body weight was used for zero concentration of the challenge agent in the construction of these dose-response curves. Numerical data are expressed as mean ± S.D. for n>2, or as mean and range for n = 2.

σ1 receptor = details: cited from earlier work
GluN2B receptors [3] = target: T2, GluN2B receptors; test: ED50 for pre-blocking of GluN2B radioligand uptake in rat whole brain (PET); format: in vivo; details: for ED50 in rat whole brain in vivo ^11C-(−)-NR2B-Me: radioligand ^11C-(−)-NR2B-Me; for ED50 in rat whole brain in vivo ^11C-(−)-NR2B-Me / ED50 in rat whole brain in vivo ^11C-(+)-NR2B-Me: AUC 20-90 min; for effect of pre-administration on whole rat brain radioactivity uptake of GluN2B radioligands: ^11C-NR2B-Me enantiomers (also ^11C-(S)-NR2B-SMe); for ED50 in rat whole brain in vivo ^11C-(+)-NR2B-Me: radioligand ^11C-(+)-NR2B-Me
Experimental: as §3, §4

σ2 receptor = details: cited from earlier work
[4] = parameters: method as in PMID 30030340; details: rhesus monkeys, PET; cited from earlier work
σ1 receptors = target: T3, σ1 receptors (Rattus norvegicus, UniProt Q9R0C9); test: ED50 for pre-blocking of ^18F-FTC146 uptake in rat whole brain (PET); format: in vivo
T3 construct: from tissue; host or cells: brain of living male rats (PET imaging)
T3 sequence (Q9R0C9 whole entry): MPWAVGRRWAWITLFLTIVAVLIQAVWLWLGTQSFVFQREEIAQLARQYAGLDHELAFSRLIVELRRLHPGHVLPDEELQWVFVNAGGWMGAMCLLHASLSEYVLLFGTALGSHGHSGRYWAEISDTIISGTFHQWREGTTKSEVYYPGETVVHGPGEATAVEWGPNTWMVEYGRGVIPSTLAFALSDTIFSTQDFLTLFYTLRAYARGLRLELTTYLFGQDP
Experimental: For radioligand injection, a polyethylene catheter (PE 10) was inserted into the penile vein of a male rat and then secured with tissue adhesive and tape. For dynamic scanning, the rats were secured with tape in the scanner and kept under 1.5% isoflurane anesthesia via a nose cone. Body temperature was monitored with a rectal probe. All PET scans were performed on a microPET Focus 220 scanner (Siemens Medical Solutions) (7,8). Data were acquired in listmode and reconstructed with Fourier rebinning + 2D filtered backprojection. A transmission scan was acquired before radioligand injection for attenuation correction. Dynamic scanning began at the time of a one-minute intravenous bolus injection of the radioligand under study (55 ± 19 MBq; volume 0.2 to 1.0 mL). The injected mass dose was 3 ± 1 nmol/kg. Challenge agents were administered intravenously 10 minutes before the radioligand for pre-blocking studies or 10 minutes after the radioligand for displacement studies. Tomographic images were analyzed with pixel-wise modeling computer software (PMOD 2.6; PMOD Group). Regions-of-interest in the brain were delineated, and time-activity curves calculated as SUV versus time.
Pre-blocking and displacement experiments were performed to assess radioligand target engagement and radioligand selectivity in vivo. Normally 4 doses of 0.01 mg/kg, 0.05 mg/kg, 0.25 mg/kg, and 1.25 mg/kg were used for preblocking experiments, and only 2 doses of 0.25 mg/kg and 1.25 mg/kg were used for displacement experiments. […] […] […] […] Where data permitted, the dose-response curves were fitted with GraphPad Prism software (version 8.1.1; GraphPad) to estimate the ED50 values. A dummy value of 100 pmol per kg body weight was used for zero concentration of the challenge agent in the construction of these dose-response curves. Numerical data are expressed as mean ± S.D. for n>2, or as mean and range for n = 2.

[5] = 45 min after intravenous injection
[6] = 30 min after intravenous injection
[7] = PET, sixty minutes after injection

COc1ccc2c(c1)CCN(CCCCc1ccc(C)cc1)CC2O (single isomer, unassigned; (+)) [(+)-NR2B-Me]
Ki (PC12 cell σ2 receptors): 100 nM
Ki (guinea pig σ1 receptor): 91 nM

Oc1ccc2c(c1)CCN(CCCCc1ccc([18F])cc1)C[C@@H]2O [(R)-^18F-PF-NB1]
radioactivity in cerebellum as % of that in cortex [1, 5]: 85%
radioactivity in cerebellum as % of that in hippocampus [1, 5]: 110%
radioactivity in cerebellum as % of that in striatum [1, 5]: 95%
radioactivity in cerebellum as % of that in thalamus [1, 5]: 92%

COc1ccc2c(c1)CCN(CCCCc1ccc([11CH3])cc1)CC2O (stereo not drawn) [^11C-(+)-NR2B-Me]
BPND (SUVBL/SUVND−1), whole rat brain (GluN2B receptors [2]): 5
non-displaceable binding (X-axis intercept of Lassen plots) (GluN2B receptors [2]): about 0.42 SUV
displacement from peak value at 90 min (GluN2B receptors [2]): 46%

COC(=O)C1(c2ccc(C)cc2)CC1CN1CCC(O)(c2ccccc2)CC1 (racemic) [( ±)-PPCC]
Ki (σ1 receptor; reference radioligand ^3H-pentazocine, ref 45, read-out: Ki for σ1): 1.5 nM
ED50 in rat whole brain in vivo ^11C-(−)-NR2B-Me (GluN2B receptors [3]; pre-blocking): > 1000 nmol/kg
Ki (σ2 receptor; reference radioligand ^3H-DTG, ref 45, read-out: Ki for σ2): 50.8 nM

COc1ccc2c(c1)CCN(CCCCc1ccccc1[18F])C[C@@H]2O [^18F-(R)-OF-Me-NB1]
radioactivity in cerebellum as % of that in cortex [1, 6]: 73%
radioactivity in cerebellum as % of that in hippocampus [1, 6]: 74%
radioactivity in cerebellum as % of that in striatum [1, 6]: 77%
radioactivity in cerebellum as % of that in thalamus [1, 6]: 75%
SUVR relative to cerebellum, cortex [4]: 1.37
SUVR relative to cerebellum, hippocampus [4]: 1.36
SUVR relative to cerebellum, striatum [4]: 1.30
SUVR relative to cerebellum, thalamus [4]: 1.33

O=C(OCCN1CCOCC1)C1(c2ccccc2)CCCCC1 [PRE-084]
ED50 in rat whole brain in vivo ^11C-(−)-NR2B-Me (GluN2B receptors [3]; pre-blocking): > 1000 nmol/kg

CC(C)=CCN1CC[C@]2(C)c3cc(O)ccc3C[C@H]1[C@H]2C [(+)-Pentazocine]
ED50 in rat whole brain in vivo ^11C-(−)-NR2B-Me (GluN2B receptors [3]; pre-blocking): > 1000 nmol/kg

COc1ccc(CCN2CCN(CCCc3ccccc3)CC2)cc1OC [SA4503]
Ki (σ1 receptor; reference radioligand ^3H-pentazocine, ref 38, 43, read-out: Ki for σ1): 4.6 nM
Ki (σ1 receptor; reference radioligand ^3H-pentazocine, ref 41, 42, read-out: Ki for σ1): 17.4 nM
effect of pre-administration on whole rat brain radioactivity uptake of GluN2B radioligands (GluN2B receptors [3]): strong pre-blocking effects
ED50 in rat whole brain in vivo ^11C-(+)-NR2B-Me (GluN2B receptors [3]; pre-blocking): 41 nmol/kg
ED50 in rat whole brain in vivo ^11C-(−)-NR2B-Me (GluN2B receptors [3]; pre-blocking): 43 nmol/kg
Ki (σ2 receptor; reference radioligand ^3H-DTG, ref 38, 43, read-out: Ki for σ2): 63 nM
Ki (σ2 receptor; reference radioligand ^3H-DTG, ref 41, 42, read-out: Ki for σ2): 1780 nM

(+)-SKF10047
Ki (σ1 receptor; reference radioligand ^3H-pentazocine, ref 48, read-out: Ki for σ1): 48 nM
Ki (σ2 receptor; reference radioligand ^3H-DTG, ref 48, read-out: Ki for σ2): 625 nM

COc1ccc2c(c1)CCN(CCCCc1ccc([11CH3])cc1)CC2O (stereo not drawn) [^11C-(−)-NR2B-Me]
BPND (SUVBL/SUVND−1), whole rat brain (GluN2B receptors [2]): 5
non-displaceable binding (X-axis intercept of Lassen plots) (GluN2B receptors [2]): about 0.42 SUV
displacement from peak value at 90 min (GluN2B receptors [2]): 63%

OC12C3C4CC5C6C4C1C6C(C53)N2CCc1cccc(F)c1 (stereo not drawn) [TC1]
Ki (σ1 receptor; reference radioligand ^3H-pentazocine, ref 40, read-out: Ki for σ1): 10 nM
effect of pre-administration on whole rat brain radioactivity uptake of GluN2B radioligands (GluN2B receptors [3]): strong pre-blocking effects
ED50 in rat whole brain in vivo ^11C-(+)-NR2B-Me (GluN2B receptors [3]; pre-blocking): 64 nmol/kg
ED50 in rat whole brain in vivo ^11C-(−)-NR2B-Me (GluN2B receptors [3]; pre-blocking): 48 nmol/kg
Ki (σ2 receptor; reference radioligand ^3H-DTG, ref 40, read-out: Ki for σ2): 370 nM

COc1ccc2c(c1)CCN(CCCCc1ccc(SC)cc1)C[C@@H]2O [(R)-NR2B-SMe]
Ki (σ1 receptor; read-out: σ1 Ki): 88 nM
Ki (σ2 receptor; read-out: σ2 Ki): 110 nM

CN(C)CCN(C)CCc1ccc(Cl)c(Cl)c1 [BD1047]
Ki (σ1 receptor; reference radioligand ^3H-pentazocine, ref 39, read-out: Ki for σ1): 0.9 nM
ED50 in rat whole brain in vivo ^18F-FTC146 (σ1 receptors; radioligand ^18F-FTC146, AUC 20-120 min): 169 nmol/kg
effect of pre-administration on whole rat brain radioactivity uptake of GluN2B radioligands (GluN2B receptors [3]): minimal effects
ED50 in rat whole brain in vivo ^11C-(+)-NR2B-Me (GluN2B receptors [3]; pre-blocking): 555 nmol/kg
ED50 in rat whole brain in vivo ^11C-(−)-NR2B-Me (GluN2B receptors [3]; pre-blocking): 900 nmol/kg
ED50 in rat whole brain in vivo ^11C-(−)-NR2B-SMe (GluN2B receptors [3]; pre-blocking, radioligand as printed in Table 3 head): > 1000 nmol/kg
Ki (σ2 receptor; reference radioligand ^3H-DTG, ref 39, read-out: Ki for σ2): 47 nM

COc1ccc2c(c1)CCN(CCCCc1ccc(C)cc1)CC2O (single isomer, unassigned; (-)) [(−)-NR2B-Me]
Ki (PC12 cell σ2 receptors): 110 nM
Ki (guinea pig σ1 receptor): 42 nM

[11CH3]Oc1ccc2c(c1)CCN(CCCCc1ccccc1)C[C@@H]2O [(R)-^11C-Me-NB1]
radioactivity concentration in cerebellum as % of that in cortex [1, 7]: 79%
radioactivity concentration in cerebellum as % of that in hippocampus [1, 7]: 74%
radioactivity concentration in cerebellum as % of that in striatum [1, 7]: 75%
radioactivity concentration in cerebellum as % of that in thalamus [1, 7]: 83%

COc1ccc2c(c1)CCN(CCCCc1ccc(SC)cc1)C[C@H]2O [(S)-NR2B-SMe]
Ki (σ1 receptor; read-out: σ1 Ki): 24 nM
ED50 versus ^18F-FTC146 (σ1 receptors; rat whole brain): exceeded 1 µmol per kg body weight
Ki (σ2 receptor; read-out: σ2 Ki): 140 nM
